Results reported in patent US11548893B2 (priority 2017, dated 2023).
Where two headings read alike, the source gives them in different places.

Columns and labels:
[1] = tested on: MARV (full-length glycoprotein, VSV pseudotype); assay: microbe, parasite or virus in culture; type: cell-based, Marburg marburgvirus; settings: read-out: EC50 Pseudotype Assays MARV
[2] = tested on: BDBV (mucin-deleted glycoprotein, VSV pseudotype); assay: microbe, parasite or virus in culture; type: cell-based, Bundibugyo ebolavirus; settings: read-out: EC50 Pseudotype Assays BDBV
[3] = tested on: EBOV_FL: full-length Ebola Zaire GP (VSV pseudotype); assay: microbe, parasite or virus in culture; type: cell-based, Zaire ebolavirus; settings: read-out: EC50 Pseudotype Assays EBOV_FL
[4] = tested on: SUDV (glycoprotein, VSV pseudotype); assay: microbe, parasite or virus in culture; type: cell-based, Sudan ebolavirus; settings: read-out: EC50 Pseudotype Assays SUDV
[5] = tested on: VSV (native full-length glycoprotein); assay: microbe, parasite or virus in culture; type: cell-based; settings: Vesicular stomatitis virus, Vero, read-out: EC50 Pseudotype Assays VSV
[6] = tested on: EBOV (mucin-deleted glycoprotein, VSV pseudotype); assay: microbe, parasite or virus in culture; type: cell-based, Zaire ebolavirus; settings: read-out: EC50 Pseudotype Assays EBOV
[7] = in vitro; settings: African green monkey, Cytotox CC50
[8] = tested on: Vero cells; settings: African green monkey
[9] = in vitro; settings: African green monkey
[10] = tested on: EBOV (Mayinga); assay: microbe, parasite or virus in culture; type: cell-based, Ebola virus; settings: for EC50: Zaire ebolavirus, Vero
[11] = tested on: Ebola Zaire; assay: microbe, parasite or virus in culture; settings: Zaire ebolavirus, read-out: Ebola Zaire EC90
[12] = tested on: Sudan Gulu
[13] = tested on: Ebola Zaire
[14] = microsomes, 1 h
[15] = tested on: Sudan Gulu; assay: organism not typed; settings: HeLa, read-out: Sudan Gulu EC50
[16] = tested on: Ebola Zaire; assay: microbe, parasite or virus in culture; settings: Zaire ebolavirus, read-out: Ebola Zaire EC50
[17] = tested on: Ebola Zaire; assay: microbe, parasite or virus in culture; settings: Zaire ebolavirus, HeLa, read-out: Ebola Zaire EC50
[18] = tested on: Ebola Zaire; remark: listed apart in the source
[19] = microsomes, 1 h; remark: listed apart in the source
[20] = microsomes, 1 h; remark: listed apart in the source
[21] = microsomes, 1 h; remark: listed apart in the source
[22] = Vesicular stomatitis virus, Vero, 24 h

## CC12CC3CC(C(=O)N[C@@H]4CCNC[C@H]4F)(C1)CC(c1ccccc1)(C3)C2 (mixture of isomers) [Example A5]
[1]; [22]
  EC50: 4880 nM
[2]; [22]
  EC50: 190 nM
[3]; Zaire ebolavirus, Vero, 24 h
  EC50: 30 nM
[4]; [22]
  EC50: 410 nM
[5]
  EC50: > 10000 nM
[6]; Zaire ebolavirus, Vero, 24 h
  EC50: 50 nM
[7]
  CC50: 11300 nM

## CCC12CC3CC(C(=O)NC4CCNCC4(C)C)(C1)CC(c1ccccc1)(C3)C2 (racemic) [Example A52]
[1]
  EC50: 1200 nM
[2]
  EC50: 168 nM
[8]
  CC50: 5700 nM
[3]
  EC50: 30 nM
[4]
  EC50: 400 nM
[6]
  EC50: 38 nM

## C[C@@]12CC3CC(C(=O)N[C@H]4CC[C@@H](N)CC4)(C1)C[C@](c1ccccc1)(C3)C2 [Example C2]
[1]; [22]
  EC50: 8720 nM
[2]; [22]
  EC50: 252 nM
[3]; Zaire ebolavirus, Vero, 24 h
  EC50: 209 nM
[9]
  CC50: 21400 nM
[4]; [22]
  EC50: 767 nM
[6]; Zaire ebolavirus, Vero, 24 h
  EC50: 135 nM
[7]
  CC50: 25500 nM
[10]
  SI50 (CC50/EC50): 8
  EC50: 2670 nM

## C[C@@]12CC3CC(C(=O)NC4CCNCC4)(CC(c4ccccc4)(C3)C1)C2 [Example B1]
[11]
  EC90: 2100 nM
[1]; [22]
  EC50: > 3000 nM
[12]
  Sudan Gulu SI (CC50/EC50): 285
[2]; [22]
  EC50: 238 nM
[13]
  Ebola Zaire SI (CC50/EC50): 51
[14]
  Liver Microsome Stability % Remaining after 60 Minutes, Mouse: 87%
[15]
  EC50: 120 nM
[3]; Zaire ebolavirus, Vero, 24 h
  EC50: 10 nM
[4]; [22]
  EC50: 250 nM
[6]; Zaire ebolavirus, Vero, 24 h
  EC50: 34 nM
[16]
  EC50: > 3200 nM
[17]
  EC50: 640 nM
[18]
  Ebola Zaire SI (CC50/EC90): >48
[7]
  CC50: 12300 nM
[19]
  Liver Microsome Stability % Remaining after 60 Minutes, Human: 81%
[20]
  Liver Microsome Stability % Remaining after 60 Minutes, Monkey: 83%

## CC12CC3CC(C(=O)N[C@H]4CN5CCC4CC5)(C1)CC(c1ccccc1)(C3)C2 (mixture of isomers) [Example A58]
[1]; [22]
  EC50: 282 nM
[2]; [22]
  EC50: 198 nM
[3]; Zaire ebolavirus, Vero, 24 h
  EC50: 70 nM
[4]; [22]
  EC50: 383 nM
[5]
  EC50: > 10000 nM
[6]; Zaire ebolavirus, Vero, 24 h
  EC50: 74 nM
[7]
  CC50: 7200 nM

## C[C@H]1C[C@@H](NC(=O)C23CC4C[C@@](C)(C2)C[C@](c2ccccc2)(C4)C3)CCN1 [Example B15]
[2]
  EC50: 210 nM
[8]
  CC50: 14800 nM
[4]
  EC50: 610 nM
[6]
  EC50: 35 nM

## CCC12CC3CC(C(=O)N[C@@H]4CCNC[C@H]4F)(C1)CC(c1ccccc1)(C3)C2 (mixture of isomers) [Example A18]
[1]
  EC50: 3500 nM
[2]
  EC50: 203 nM
[8]
  CC50: 9800 nM
[3]
  EC50: 30 nM
[4]
  EC50: 303 nM
[6]
  EC50: 200 nM

## CC12CC3CC(C(=O)N4CCC(N)C(C)(C)C4)(C1)CC(c1ccccc1)(C3)C2 (racemic) [Example A35]
[21]
  Liver Microsome Stability % Remaining after 60 Minutes, Guinea Pig: 45%
[12]
  Sudan Gulu SI (CC50/EC50): 136
[2]; [22]
  EC50: 71 nM
[13]
  Ebola Zaire SI (CC50/EC50): 29
[14]
  Liver Microsome Stability % Remaining after 60 Minutes, Mouse: 42%
[15]
  EC50: 140 nM
[3]; Zaire ebolavirus, Vero, 24 h
  EC50: 20 nM
[4]; [22]
  EC50: 80 nM
[6]; Zaire ebolavirus, Vero, 24 h
  EC50: 10 nM
[17]
  EC50: 1140 nM
[7]
  CC50: 10200 nM
[19]
  Liver Microsome Stability % Remaining after 60 Minutes, Human: 97%
[20]
  Liver Microsome Stability % Remaining after 60 Minutes, Monkey: 22%

## C[C@H]1C[C@@H](NC(=O)C23CC4CC(C)(C2)CC(c2ccccc2)(C4)C3)CCN1 (mixture of isomers) [Example A4]
[1]; [22]
  EC50: 7100 nM
[2]; [22]
  EC50: 198 nM
[3]; Zaire ebolavirus, Vero, 24 h
  EC50: 25 nM
[4]; [22]
  EC50: 730 nM
[5]
  EC50: > 10000 nM
[6]; Zaire ebolavirus, Vero, 24 h
  EC50: 22 nM
[7]
  CC50: 11700 nM

## CC12CC3CC(C(=O)N4CCC5(CC4)CNC5)(C1)CC(c1ccccc1)(C3)C2 (racemic) [Example A48]
[21]
  Liver Microsome Stability % Remaining after 60 Minutes, Guinea Pig: 87%
[2]; [22]
  EC50: 35 nM
[14]
  Liver Microsome Stability % Remaining after 60 Minutes, Mouse: 76%
[3]; Zaire ebolavirus, Vero, 24 h
  EC50: 140 nM
[4]; [22]
  EC50: 35 nM
[6]; Zaire ebolavirus, Vero, 24 h
  EC50: 14 nM
[7]
  CC50: 13700 nM
[19]
  Liver Microsome Stability % Remaining after 60 Minutes, Human: 46%
[20]
  Liver Microsome Stability % Remaining after 60 Minutes, Monkey: 22%

## CC12CC3CC(CN4CCC(N)CC4)(C1)CC(c1ccccc1)(C3)C2 (stereo not shown) [Example A69]
[21]
  Liver Microsome Stability % Remaining after 60 Minutes, Guinea Pig: 65%
[1]; [22]
  EC50: 950 nM
[12]
  Sudan Gulu SI (CC50/EC50): 58
[2]; [22]
  EC50: 163 nM
[13]
  Ebola Zaire SI (CC50/EC50): 16
[14]
  Liver Microsome Stability % Remaining after 60 Minutes, Mouse: 100%
[15]
  EC50: 70 nM
[4]; [22]
  EC50: 290 nM
[6]; Zaire ebolavirus, Vero, 24 h
  EC50: 321 nM
[17]
  EC50: 440 nM
[7]
  CC50: 2200 nM
[19]
  Liver Microsome Stability % Remaining after 60 Minutes, Human: 98%
[20]
  Liver Microsome Stability % Remaining after 60 Minutes, Monkey: 68%

## C[C@H]1C[C@@H](NC(=O)C23CC4C[C@@](C)(C2)C[C@](c2ccccc2)(C4)C3)CCN1 [Example B4]
[11]
  EC90: 2900 nM
[1]; [22]
  EC50: > 3000 nM
[12]
  Sudan Gulu SI (CC50/EC50): 155
[2]
  EC50: 104 nM
[13]
  Ebola Zaire SI (CC50/EC50): 54
[14]
  Liver Microsome Stability % Remaining after 60 Minutes, Mouse: 92%
[15]
  EC50: 150 nM
[4]
  EC50: 166 nM
[6]
  EC50: 13 nM
[17]
  EC50: 620 nM
[18]
  Ebola Zaire SI (CC50/EC90): >35
[7]
  CC50: 22500 nM
[19]
  Liver Microsome Stability % Remaining after 60 Minutes, Human: 82%
[20]
  Liver Microsome Stability % Remaining after 60 Minutes, Monkey: 54%

## C[C@]12CC3CC(C(=O)N[C@H]4CC[C@H](CN)CC4)(C1)C[C@@](c1ccccc1)(C3)C2 [Example B3]
[11]
  EC90: 600 nM
[1]; [22]
  EC50: 3600 nM
[12]
  Sudan Gulu SI (CC50/EC50): 119
[2]; [22]
  EC50: 114 nM
[14]
  Liver Microsome Stability % Remaining after 60 Minutes, Mouse: 27%
[15]
  EC50: 120 nM
[3]; Zaire ebolavirus, Vero, 24 h
  EC50: 10 nM
[4]; [22]
  EC50: 230 nM
[6]; Zaire ebolavirus, Vero, 24 h
  EC50: 9 nM
[16]
  EC50: 430 nM
[17]
  EC50: 570 nM
[18]
  Ebola Zaire SI (CC50/EC90): 23
[7]
  CC50: 6110 nM
[19]
  Liver Microsome Stability % Remaining after 60 Minutes, Human: 83%
[20]
  Liver Microsome Stability % Remaining after 60 Minutes, Monkey: 61%

## CC12CC3CC(C(=O)N[C@H]4CC[C@H](CN)CC4)(C1)CC(c1ccccc1)(C3)C2 (mixture of isomers) [Example A3]
[1]; [22]
  EC50: 7000 nM
[2]; [22]
  EC50: 95 nM
[3]; Zaire ebolavirus, Vero, 24 h
  EC50: 40 nM
[4]; [22]
  EC50: 30 nM
[5]
  EC50: > 10000 nM
[6]; Zaire ebolavirus, Vero, 24 h
  EC50: 26 nM
[7]
  CC50: 8000 nM

## CC12CC3CC(C(=O)NC4CCNCC4)(C1)CC(c1ccccc1)(C3)C2 (racemic) [Example A1]
[1]; [22]
  EC50: 2800 nM
[2]; [22]
  EC50: 160 nM
[3]; Zaire ebolavirus, Vero, 24 h
  EC50: 40 nM
[4]; [22]
  EC50: 380 nM
[5]
  EC50: > 10000 nM
[6]; Zaire ebolavirus, Vero, 24 h
  EC50: 42 nM
[7]
  CC50: 16100 nM

## C[C@]12CC3CC(C(=O)N[C@H]4CN5CCC4CC5)(C1)C[C@@](c1ccccc1)(C3)C2 [Example B58]
[11]
  EC90: 4400 nM
[1]; [22]
  EC50: 1680 nM
[12]
  Sudan Gulu SI (CC50/EC50): 157
[2]; [22]
  EC50: 230 nM
[15]
  EC50: 150 nM
[9]
  CC50: 25700 nM
[4]; [22]
  EC50: 220 nM
[6]; Zaire ebolavirus, Vero, 24 h
  EC50: 36 nM
[16]
  EC50: 400 nM
[17]
  EC50: 900 nM
[18]
  Ebola Zaire SI (CC50/EC90): 6.5
[7]
  CC50: 8000 nM
[10]
  SI50 (CC50/EC50): 64
  EC50: 400 nM
